In patent publication US10420787B2, “Crystal-water-free calcium dibutyryladenosine cyclophosphate crystal form and preparation method and application thereof” (SPH NO.1 BIOCHEMICAL & PHARMACEUTICAL CO., LTD., priority 2014, dated 2019):
“And” between values parts separate entries of the source, which are not always exact repeats. Equal values may be shown once.

Columns and labels:
[1] = Long-term observation stability test (16° C., relative humidity 60±5%, 12 months); format: physicochemical; settings: RH 60±5%; for Related substances (%): HPLC
Text: (§1) Chromatographic conditions include:
(§2) HPLC purity is detected according to the method in the following embodiments.

[2] = Hygrothermal acceleration stability test (30° C., relative humidity 75±5%, 6 months); format: physicochemical; settings: RH 75±5%; for Related substances (%): HPLC
Text: as §1, §2

| Compound | Content (%) ([1]; 0 months) | Related substances (%) ([1]; 0 months) | Content (%) ([1]; 3 months) | Related substances (%) ([1]; 3 months) | Related substances (%) ([1]; 6 months) | Content (%) ([1]; 9 months) | Related substances (%) ([1]; 9 months) | Content (%) ([1]; 12 months) | Related substances (%) ([1]; 12 months) | Related substances (%) ([2]; 0 months) | Content (%) ([2]; 1 month) | Related substances (%) ([2]; 1 month) | Content (%) ([2]; 2 months) | Related substances (%) ([2]; 2 months) | Content (%) ([2]; 3 months) | Related substances (%) ([2]; 3 months) | Content (%) ([2]; 6 months) | Related substances (%) ([2]; 6 months) | Content (%) ([1]; 6 months) | Content (%) ([2]; 0 months) |
| --- | --- | --- | --- | --- | --- | --- | --- | --- | --- | --- | --- | --- | --- | --- | --- | --- | --- | --- | --- | --- |
| CCCC(=O)Nc1ncnc2c1ncn2[C@@H]1O[C@@H]2COP(=O)([O-])O[C@H]2[C@H]1OC(=O)CCC.CCCC(=O)Nc1ncnc2c1ncn2[C@@H]1O[C@@H]2COP(=O)([O-])O[C@H]2[C@H]1OC(=O)CCC.[Ca+2] [Anhydrouscalcium dibutyryladenosine cyclophosphate solids] [anhydrous calcium dibutyryladenosine cyclophosphate, reference compound] | 954% | 4.3% | 95.0% | 4.6% | 4.8% | 94.4% | 5.2% | 94.1% | 5.4% | 4.3% | 94.8% | 4.9% | 94.2% | 5.5% | 93.5% | 6.0% | 93.0% | 6.7% |  |  |
| calcium dibutyryladenosine cyclophosphate 2.3 hydrates [DBC-Ca•2.3H2O crystals, reference compound] | 90.2% | 5.3% | 90.0% | 5.3% | 5.5% | 89.7% | 5.6% | 89.6% | 5.9% | 5.3% | 90.1% | 5.5% | 89.8% | 5.8% | 89.7% | 5.9% | 89.3% | 6.1% | 89.9% | 90.2% |
| CCCC(=O)Nc1ncnc2c1ncn2[C@@H]1O[C@@H]2COP(=O)([O-])O[C@H]2[C@H]1OC(=O)CCC.CCCC(=O)Nc1ncnc2c1ncn2[C@@H]1O[C@@H]2COP(=O)([O-])O[C@H]2[C@H]1OC(=O)CCC.[Ca+2] [calcium dibutyryladenosine cyclophosphate] | 95.8% and 96.2% and 95.2% | 3.8% and 4.1% and 4.0% | 95.5% and 96.1% and 95.3% | 3.7% and 4.2% and 4.1% | 3.8% and 4.1% and 4.3% | 95.5% and 95.9% and 95.0% | 3.7% and 4.0% and 4.2% | 95.3% and 95.8% and 94.9% | 4.0% and 4.3% and 4.4% | 3.8% and 4.1% and 4.0% | 95.3% and 95.8% and 95.0% | 3.9% and 4.0% and 4.1% | 95.1% and 95.4% | 4.0% and 4.1% | 94.9% and 95.0% and 94.7% | 4.2% and 4.3% | 94.5% and 94.7% and 94.3% | 4.5% and 4.7% and 4.6% | 95.6% and 96.0% and 95.1% | 95.8% and 96.2% and 95.2% |
